Measured values from patent publication US20040018941A1, “Fused-benzene derivatives of thiouracil, herbicidal and desiccant compositions contaning them” (ISHIHARA SANGYO KAISHA, LTD., priority 2002, published 2004).

Key:
Type in all cases: in vivo
Conditions in all cases: rating 0-100 (0 no damage, 100 complete death), 14 days after application
[1] = system: redroot pigweed (Amaranthus retroflexus, AMARE); assay: Pre-emerge herbicidal activity, greenhouse screen, AMARE
Description: (§1) A standard greenhouse herbicide activity screening system was used to evaluate the herbicidal efficacy and crop safety of these test compounds. Seven broadleaf weed species including redroot pigweed (Amaranthus retroflexus, AMARE), velvetleaf (Abutilon theophrasti, ABUTH), sicklepod (Cassia obtusifolia, CASOB), ivyleaf morningglory (Ipomoea hederacea, IPOHE), lambsquarters (Chenopodium album, CHEAL), common ragweed (Ambrosia artemisiifolia L., AMBEL), and cocklebur (Xanthium strumarium, XANST) were used as test species. Four grass weed species including green foxtail (Setaria viridis, SETVI), barnyardgrass (Echinochloa crus-galli, ECHCG), johnsongrass (Sorghum halepense, SORHA), and large crabgrass (Digitaria sanguinalis, DIGSA) were also used. In addition, three crop species, field corn (Zea mays L., var. Dekalb 527, CORN), soybean (Glycine max L., var. Pella 86, SOY), and upland rice (Oryza sp., var. Tebonnet, RICE) were included.
(§2) All plants were grown in 10 cm square plastic pots which were filled with a sandy loam soil mix. For pre-emerge tests, seeds were planted one day prior to application of the test compounds. For post-emerge tests, seeds were planted 8-21 days prior to the test to allow emergence and good foliage development prior to application of the test substances. At the time of the post-emerge application, plants of all species were usually at the 2-3 leaf stage of development.
(§3) All test compounds were dissolved in acetone and applied to the test units in a volume of 187 l/ha. Test materials were applied at rates ranging from 15 g ai/ha to 1000 g ai/ha using a track sprayer equipped with a TJ8001 E even flow flat fan spray nozzle. Plants were arranged on a shelf so that the top of the canopy (post-emerge) or top of the soil surface (pre-emerge) was 40-45 cm below the nozzle. Pressurized air was used to force the test solution through the nozzle as it was mechanically advanced over the top of all test plants/pots. This application simulates a typical commercial field herbicide application.
(§4) In the post-emerge test, a commercial non-ionic surfactant was also included (0.25% v/v) to enhance wetting of the leaf surfaces of target plants. Immediately after application, test units of the pre-emerge applications were watered at the soil surface to incorporate the test materials.
(§5) At 14 days after application of the test materials, phytotoxicity ratings were recorded. A rating scale of 0-100 was used as previously described in Research Methods in Weed Science, 2nd edition, B. Truelove, Ed., Southern Weed Science Society, Auburn University, Auburn, Ala., 1977. Briefly, “0” corresponds to no damage and “100” corresponds to complete death of all plants in the test unit. This scale was used both to determine efficacy against weed species and damage to crop species. Herbicide activity data for various compounds of this invention, which are shown by compound No. in Tables 1-7, are shown in Tables 8 and 9.

[2] = system: velvetleaf (Abutilon theophrasti, ABUTH); assay: Pre-emerge herbicidal activity, greenhouse screen, ABUTH
Description: as §1, §2, §3, §4, §5

[3] = system: sicklepod (Cassia obtusifolia, CASOB); assay: Pre-emerge herbicidal activity, greenhouse screen, CASOB
Description: as §1, §2, §3, §4, §5

[4] = system: ivyleaf morningglory (Ipomoea hederacea, IPOHE); assay: Pre-emerge herbicidal activity, greenhouse screen, IPOHE
Description: as §1, §2, §3, §4, §5

[5] = system: lambsquarters (Chenopodium album, CHEAL); assay: Pre-emerge herbicidal activity, greenhouse screen, CHEAL
Description: as §1, §2, §3, §4, §5

[6] = system: common ragweed (Ambrosia artemisiifolia L., AMBEL); assay: Pre-emerge herbicidal activity, greenhouse screen, AMBEL
Description: as §1, §2, §3, §4, §5

[7] = system: green foxtail (Setaria viridis, SETVI); assay: Pre-emerge herbicidal activity, greenhouse screen, SETVI
Description: as §1, §2, §3, §4, §5

[8] = system: barnyardgrass (Echinochloa crus-galli, ECHCG); assay: Pre-emerge herbicidal activity, greenhouse screen, ECHCG
Description: as §1, §2, §3, §4, §5

[9] = system: johnsongrass (Sorghum halepense, SORHA); assay: Pre-emerge herbicidal activity, greenhouse screen, SORHA
Description: as §1, §2, §3, §4, §5

[10] = system: large crabgrass (Digitaria sanguinalis, DIGSA); assay: Pre-emerge herbicidal activity, greenhouse screen, DIGSA
Description: as §1, §2, §3, §4, §5

[11] = system: redroot pigweed (Amaranthus retroflexus, AMARE); assay: Post-emerge herbicidal activity, greenhouse screen, AMARE
Description: as §1, §2, §3, §4, §5

[12] = system: velvetleaf (Abutilon theophrasti, ABUTH); assay: Post-emerge herbicidal activity, greenhouse screen, ABUTH
Description: as §1, §2, §3, §4, §5

[13] = system: sicklepod (Cassia obtusifolia, CASOB); assay: Post-emerge herbicidal activity, greenhouse screen, CASOB
Description: as §1, §2, §3, §4, §5

[14] = system: ivyleaf morningglory (Ipomoea hederacea, IPOHE); assay: Post-emerge herbicidal activity, greenhouse screen, IPOHE
Description: as §1, §2, §3, §4, §5

[15] = system: lambsquarters (Chenopodium album, CHEAL); assay: Post-emerge herbicidal activity, greenhouse screen, CHEAL
Description: as §1, §2, §3, §4, §5

[16] = system: common ragweed (Ambrosia artemisiifolia L., AMBEL); assay: Post-emerge herbicidal activity, greenhouse screen, AMBEL
Description: as §1, §2, §3, §4, §5

[17] = system: green foxtail (Setaria viridis, SETVI); assay: Post-emerge herbicidal activity, greenhouse screen, SETVI
Description: as §1, §2, §3, §4, §5

[18] = system: barnyardgrass (Echinochloa crus-galli, ECHCG); assay: Post-emerge herbicidal activity, greenhouse screen, ECHCG
Description: as §1, §2, §3, §4, §5

[19] = system: johnsongrass (Sorghum halepense, SORHA); assay: Post-emerge herbicidal activity, greenhouse screen, SORHA
Description: as §1, §2, §3, §4, §5

[20] = system: large crabgrass (Digitaria sanguinalis, DIGSA); assay: Post-emerge herbicidal activity, greenhouse screen, DIGSA
Description: as §1, §2, §3, §4, §5

| SMILES | Pre-emerge Herbicidal Activity AMARE ([1]; 63 g ai/ha) | Pre-emerge Herbicidal Activity AMARE ([1]; 250 g ai/ha) | Pre-emerge Herbicidal Activity ABUTH ([2]; 63 g ai/ha) | Pre-emerge Herbicidal Activity ABUTH ([2]; 250 g ai/ha) | Pre-emerge Herbicidal Activity CASOB ([3]; 63 g ai/ha) | Pre-emerge Herbicidal Activity CASOB ([3]; 250 g ai/ha) | Pre-emerge Herbicidal Activity IPOHE ([4]; 63 g ai/ha) | Pre-emerge Herbicidal Activity IPOHE ([4]; 250 g ai/ha) | Pre-emerge Herbicidal Activity CHEAL ([5]; 63 g ai/ha) | Pre-emerge Herbicidal Activity CHEAL ([5]; 250 g ai/ha) | Pre-emerge Herbicidal Activity AMBEL ([6]; 63 g ai/ha) | Pre-emerge Herbicidal Activity AMBEL ([6]; 250 g ai/ha) | Pre-emerge Herbicidal Activity SETVI ([7]; 63 g ai/ha) | Pre-emerge Herbicidal Activity SETVI ([7]; 250 g ai/ha) | Pre-emerge Herbicidal Activity ECHCG ([8]; 63 g ai/ha) | Pre-emerge Herbicidal Activity ECHCG ([8]; 250 g ai/ha) | Pre-emerge Herbicidal Activity SORHA ([9]; 63 g ai/ha) | Pre-emerge Herbicidal Activity SORHA ([9]; 250 g ai/ha) | Pre-emerge Herbicidal Activity DIGSA ([10]; 63 g ai/ha) | Pre-emerge Herbicidal Activity DIGSA ([10]; 250 g ai/ha) | other results |
| --- | --- | --- | --- | --- | --- | --- | --- | --- | --- | --- | --- | --- | --- | --- | --- | --- | --- | --- | --- | --- | --- |
| Cn1c(C(F)(F)F)cc(=O)n(-c2c(F)cc(Cl)c3nc(C(C)(C)C)oc23)c1=S [Compound 1-3, 3-[2-t-butyl-4-chloro-6-fluoro-1,3-benzoxazol-7-yl]-1-methyl-2-thioxo-6-(trifluoromethyl)-2,3-dihydropyrimidin-4(1H)-one] | 100 | 100 | 100 | 100 | 95 | 100 | 95 | 100 | 100 | 100 | 99 | 100 | 100 | 100 | 100 | 100 | 100 | 100 | 100 | 100 | Post-emerge Herbicidal Activity AMARE ([11]; 63 g ai/ha): 100; Post-emerge Herbicidal Activity AMARE ([11]; 250 g ai/ha): 100; Post-emerge Herbicidal Activity ABUTH ([12]; 63 g ai/ha): 100; Post-emerge Herbicidal Activity ABUTH ([12]; 250 g ai/ha): 100; Post-emerge Herbicidal Activity CASOB ([13]; 63 g ai/ha): 70; Post-emerge Herbicidal Activity CASOB ([13]; 250 g ai/ha): 100; Post-emerge Herbicidal Activity IPOHE ([14]; 63 g ai/ha): 100; Post-emerge Herbicidal Activity IPOHE ([14]; 250 g ai/ha): 100; Post-emerge Herbicidal Activity CHEAL ([15]; 63 g ai/ha): 100; Post-emerge Herbicidal Activity CHEAL ([15]; 250 g ai/ha): 100; Post-emerge Herbicidal Activity AMBEL ([16]; 63 g ai/ha): 99; Post-emerge Herbicidal Activity AMBEL ([16]; 250 g ai/ha): 100; Post-emerge Herbicidal Activity SETVI ([17]; 63 g ai/ha): 99; Post-emerge Herbicidal Activity SETVI ([17]; 250 g ai/ha): 100; Post-emerge Herbicidal Activity ECHCG ([18]; 63 g ai/ha): 100; Post-emerge Herbicidal Activity ECHCG ([18]; 250 g ai/ha): 100; Post-emerge Herbicidal Activity SORHA ([19]; 63 g ai/ha): 65; Post-emerge Herbicidal Activity SORHA ([19]; 250 g ai/ha): 85; Post-emerge Herbicidal Activity DIGSA ([20]; 63 g ai/ha): 50; Post-emerge Herbicidal Activity DIGSA ([20]; 250 g ai/ha): 65 |
| Cn1c(C(F)(F)F)cc(=O)n(-c2c(F)cc(Cl)c3ncoc23)c1=S [Compound 1-1, 3-(4-chloro-6-fluoro-1,3-benzoxazol-7-yl)-1-methyl-2-thioxo-6-(trifluoromethyl)-2,3-dihydropyrimidin4(1H)-one] | 100 | 100 | 100 | 100 | 100 | 100 | 100 | 100 | 100 | 100 | 100 | 100 | 100 | 100 | 100 | 100 | 100 | 100 | 100 | 100 | Post-emerge Herbicidal Activity AMARE ([11]; 63 g ai/ha): 100; Post-emerge Herbicidal Activity AMARE ([11]; 250 g ai/ha): 100; Post-emerge Herbicidal Activity ABUTH ([12]; 63 g ai/ha): 100; Post-emerge Herbicidal Activity ABUTH ([12]; 250 g ai/ha): 100; Post-emerge Herbicidal Activity CASOB ([13]; 63 g ai/ha): 100; Post-emerge Herbicidal Activity CASOB ([13]; 250 g ai/ha): 100; Post-emerge Herbicidal Activity IPOHE ([14]; 63 g ai/ha): 100; Post-emerge Herbicidal Activity IPOHE ([14]; 250 g ai/ha): 100; Post-emerge Herbicidal Activity CHEAL ([15]; 63 g ai/ha): 100; Post-emerge Herbicidal Activity CHEAL ([15]; 250 g ai/ha): 100; Post-emerge Herbicidal Activity AMBEL ([16]; 63 g ai/ha): 100; Post-emerge Herbicidal Activity AMBEL ([16]; 250 g ai/ha): 100; Post-emerge Herbicidal Activity SETVI ([17]; 63 g ai/ha): 100; Post-emerge Herbicidal Activity SETVI ([17]; 250 g ai/ha): 100; Post-emerge Herbicidal Activity ECHCG ([18]; 63 g ai/ha): 100; Post-emerge Herbicidal Activity ECHCG ([18]; 250 g ai/ha): 100; Post-emerge Herbicidal Activity SORHA ([19]; 63 g ai/ha): 95; Post-emerge Herbicidal Activity SORHA ([19]; 250 g ai/ha): 100; Post-emerge Herbicidal Activity DIGSA ([20]; 63 g ai/ha): 95; Post-emerge Herbicidal Activity DIGSA ([20]; 250 g ai/ha): 99 |
| Cc1cc2c(-n3c(=O)cc(C(F)(F)F)n(C)c3=S)c(F)cc(Cl)c2o1 [Compound 2-2, 3-(7-chloro-5-fluoro-2-methyl-1-benzofuran-4-yl)-1-methyl-2-thioxo-6-(trifluoromethyl)-2,3-dihydropyrimidin-4(1H)-one] | 100 | 100 | 100 | 100 | 99 | 100 | 99 | 99 | 100 | 100 | 100 | 100 | 100 | 100 | 99 | 100 | 100 | 100 | 100 | 100 | Post-emerge Herbicidal Activity AMARE ([11]; 63 g ai/ha): 100; Post-emerge Herbicidal Activity AMARE ([11]; 250 g ai/ha): 100; Post-emerge Herbicidal Activity ABUTH ([12]; 63 g ai/ha): 100; Post-emerge Herbicidal Activity ABUTH ([12]; 250 g ai/ha): 100; Post-emerge Herbicidal Activity CASOB ([13]; 63 g ai/ha): 100; Post-emerge Herbicidal Activity CASOB ([13]; 250 g ai/ha): 100; Post-emerge Herbicidal Activity IPOHE ([14]; 63 g ai/ha): 100; Post-emerge Herbicidal Activity IPOHE ([14]; 250 g ai/ha): 100; Post-emerge Herbicidal Activity CHEAL ([15]; 63 g ai/ha): 100; Post-emerge Herbicidal Activity CHEAL ([15]; 250 g ai/ha): 100; Post-emerge Herbicidal Activity AMBEL ([16]; 63 g ai/ha): 100; Post-emerge Herbicidal Activity AMBEL ([16]; 250 g ai/ha): 100; Post-emerge Herbicidal Activity SETVI ([17]; 63 g ai/ha): 100; Post-emerge Herbicidal Activity SETVI ([17]; 250 g ai/ha): 100; Post-emerge Herbicidal Activity ECHCG ([18]; 63 g ai/ha): 100; Post-emerge Herbicidal Activity ECHCG ([18]; 250 g ai/ha): 100; Post-emerge Herbicidal Activity SORHA ([19]; 63 g ai/ha): 100; Post-emerge Herbicidal Activity SORHA ([19]; 250 g ai/ha): 100; Post-emerge Herbicidal Activity DIGSA ([20]; 63 g ai/ha): 85; Post-emerge Herbicidal Activity DIGSA ([20]; 250 g ai/ha): 100 |
